Measurements reported in publication PMC12713704, “Crystal structure of fatty acid thioesterase A bound by 129 fragments provides diverse development opportunities” (Pest Management Science, 2025).
pIC50, pKd: −log10 of the molar value. Values joined by “and” are separate entries in the source; they are usually repeats but may differ in a detail not shown here. Identical values can stand only once. Like-named read-outs stand apart in the source and are kept apart here.

Experiments:
[1] = target: T1, FatA (AtFatA) (Arabidopsis thaliana, UniProt Q42561); experiment: fluorescent CPM detection of CoA released from oleoyl-CoA; format: biochemical
T1 construct: residues 1-74 (chloroplast transit peptide) removed; noncleavable C-terminal His6 tag; codon-optimised gene in pET-24a(+), E. coli BL21(DE3); dimer by native mass spectrometry
T1 sequence (Q42561 75-362): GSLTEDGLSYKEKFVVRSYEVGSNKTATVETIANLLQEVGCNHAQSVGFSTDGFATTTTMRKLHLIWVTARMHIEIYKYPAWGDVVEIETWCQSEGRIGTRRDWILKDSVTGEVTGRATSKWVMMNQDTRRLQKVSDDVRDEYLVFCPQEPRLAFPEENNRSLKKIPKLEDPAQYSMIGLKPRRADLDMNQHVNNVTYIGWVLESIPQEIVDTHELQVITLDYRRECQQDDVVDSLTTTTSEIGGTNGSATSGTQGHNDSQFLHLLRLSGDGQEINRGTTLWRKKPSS

[2] = target: T1, FatA (AtFatA); experiment: X-ray crystal structure, fragment soak; settings: crystal soak […], […] DMSO, pH […]; herbicide binding site
[3] = target: T1, FatA (AtFatA); experiment: SPR, steady-state […] fit, His-captured and amine-coupled FatA; format: binding
[4] = target: T1, FatA (AtFatA); experiment: biochemical; design: SPR (Biacore 8K, immobilized His-tagged FatA), steady-state affinity and 1:1 kinetic fits, 20 °C; settings: for kon: read-out: ka (1/Ms), kinetic fit; for koff: read-out: kd (1/s), kinetic fit; for ka / kd: kinetic fit; for ka: ka (1/Ms); for kd: kd (1/s)
Text: The analogues were used to explore the binding capabilities of the herbicide pocket as well as tolerance to heterocyclic ring size. […] The resulting 60 compounds were either purchased from Enamine REAL or synthesized in‐house. […] Chemical structures of all x1816 analogues tested are available in Data S1. Binding data can be found in Data S2.

[5] = target: T1, FatA (AtFatA); experiment: biochemical; design: SPR (Biacore 8K), His-captured FatA; steady-state affinity KD and kinetic fit (1:1 model); settings: steady-state affinity fit
Protocol: FatA was immobilized on an NTA sensor chip (GE Healthcare, Chicago, IL, USA) using a Biacore 8K, captured via His‐tag and simultaneous amine coupling on EDC/NHS‐activated carboxyl groups (Immobilization buffer: 25 mM HEPES pH 7.4, 150 mM NaCl, 1 mM TCEP, 0.05% Tween 20). Equilibrium binding experiments were performed at 20 °C using a Biacore 8K instrument (GE Healthcare) with 25 mM HEPES pH 7.4, 150 mM NaCl, 1 mM TCEP, 0.05% Tween 20 and 2% DMSO as running buffer for compound testing. Compounds were injected over the chip in two‐fold dilution series either in multi‐cycle mode (60s/180s association/dissociation time) or single‐cycle kinetic mode (160 s/1800s association/dissociation time). Indicative K D values were obtained by steady‐state affinity fitting to a 1:1 binding site model.

| pKd [4] | kon [4] | koff [4] | Structure (SMILES) | other results |
| --- | --- | --- | --- | --- |
| – | – | – | NS(=O)(=O)c1nc2ccccc2[nH]1 [x1168/x1231] | IC50 ([1]; […] oleoyl-CoA, […] FatA, pH […], room temperature, active site (also dimer site), unreliable): > 250 µM |
| – | – | – | Nc1cc(F)ccc1C(=O)O [x1290] | X-ray crystal structure, fragment soak [2]: x1290 and x1437 which share a similar chemical motif and are both bound |
| – | – | – | O=C(O)c1sccc1-n1cccc1 [x1425] | pIC50 [1]: < 3.60 |
| – | – | – | Cc1cccc(C(=O)O)c1N [x1437] | X-ray crystal structure, fragment soak [2]: x1290 and x1437 which share a similar chemical motif and are both bound |
| – | – | – | Nc1ccc2oc(=O)ccc2c1 [x1463] | pIC50 [1]: 3.85 |
| – | – | – | CNC1CCN(c2ccccc2F)C1=O (stereo not shown) [x1573] | pIC50 [1]: 4.54 |
| 7.13 | 463000 M⁻¹ s⁻¹ | 0.0343 s⁻¹ | CC(=O)N1CCSc2ccccc2C1 [x1816-FU1] | pKd [3]: ~7.05 |
| – | – | – | CC(=O)N1CCSc2ccccc2C1 [x1816-FU1_repeat] | ka [4]: 367000 M⁻¹ s⁻¹ and 305000 M⁻¹ s⁻¹; kd [4]: 0.0326 s⁻¹ and 0.0293 s⁻¹ |
| 6.81 | – | 0.0502 s⁻¹ | CCC(=O)N1CCCc2ccccc2C1 [x1816-FU2] | ka [4]: 321361.600232 M⁻¹ s⁻¹ |
| – | – | – | CCC(=O)N1CCCc2ccccc2C1 [x1816-FU2_repeat] | ka [4]: 163000 M⁻¹ s⁻¹ and 124000 M⁻¹ s⁻¹; kd [4]: 0.0811 s⁻¹ and 0.0645 s⁻¹ |
| 5.94 | 10100 M⁻¹ s⁻¹ | 0.0117 s⁻¹ | CCCC(=O)N1c2ccccc2CCC1C (stereo not shown) [x1816-FU4] | – |
| – | – | – | CCCC(=O)N1c2ccccc2CCC1C (stereo not shown) [x1816-FU4_repeat] | ka [4]: 12300 M⁻¹ s⁻¹ and 10600 M⁻¹ s⁻¹; kd [4]: 0.0147 s⁻¹ and 0.0135 s⁻¹ |
| 5.81 | 45000 M⁻¹ s⁻¹ | 0.0695 s⁻¹ | CC(=O)N1c2ccccc2OCC1C (stereo not shown) [x1816-FU5] | – |
| 5.79 | 13600 M⁻¹ s⁻¹ | 0.0222 s⁻¹ | CC(C)C(=O)N1c2ccccc2CCC1C (stereo not shown) [x1816-FU6] | – |
| 5.71 | 4150 M⁻¹ s⁻¹ | 0.00811 s⁻¹ | CCC(C)C(=O)N1c2ccccc2CCC1C (stereo not shown) [x1816-FU7] | – |
| 5.61 | 13900 M⁻¹ s⁻¹ | 0.0343 s⁻¹ | CCC(=O)N1c2ccccc2CCC1C (stereo not shown) [x1816-FU8] | – |
| 5.51 | 59600 M⁻¹ s⁻¹ | 0.182 s⁻¹ | CC(=O)N1CCCc2c(Cl)ccc(F)c21 [x1816-FU9] | – |

| pKd [4] | kon [4] | koff [4] | Structure (SMILES) | other results |
| --- | --- | --- | --- | --- |
| 5.51 | 50900 M⁻¹ s⁻¹ | 0.158 s⁻¹ | CC(=O)N1CCCc2cccc(F)c21 [x1816-FU10] | – |
| 5.50 | 8170 M⁻¹ s⁻¹ | 0.0256 s⁻¹ | CC(=O)N1CC(C)(CO)Cc2ccccc21 (stereo not shown) [x1816-FU11] | – |
| 5.35 | 20000 M⁻¹ s⁻¹ | 0.0885 s⁻¹ | COCC(=O)N1c2ccccc2CCC1C (stereo not shown) [x1816-FU12] | – |
| 5.06 | 8080 M⁻¹ s⁻¹ | 0.0703 s⁻¹ | CC(C)CC(=O)N1c2ccccc2CCC1C (stereo not shown) [x1816-FU13] | – |
| 4.70 | 3010 M⁻¹ s⁻¹ | 0.06 s⁻¹ | CC1CCc2ccccc2N1C(=O)CC(C)(C)C (stereo not shown) [x1816-FU14] | – |
| – | – | – | COCC(=O)N1CC(C)(C)c2ccccc21 [x1816-FU42] | pKd [5]: 4.24 |
| – | – | – | CCC1CCc2ccccc2N1C(C)=O (stereo not shown) [x1816-FU43] | pKd [5]: 4.17 |
| – | – | – | CC1CCc2ccccc2N1C(=O)NC(C)(C)C (stereo not shown) [x1816-FU44] | pKd [5]: 4.04 |
| – | – | – | CC(=O)N1CCC(C)c2ccccc21 (stereo not shown) [x1816-FU45] | pKd [5]: 4.03 |
| – | – | – | CC(=O)N1c2ccccc2C(C)CC1(C)C (stereo not shown) [x1816-FU54] | pKd [5]: < 4.00 |
| – | – | – | CC(=O)N1CCN(C)c2ncccc21 [x1816-FU56] | pKd [5]: < 4.00 |
| – | – | – | CC(=O)N1CC(C)(C)c2ccccc21 [x1816-FU57] | pKd [5]: < 4.00 |
| – | – | – | CC(=O)N1c2ccccc2C(C)(C)CC1C (stereo not shown) [x1816-FU58] | pKd [5]: < 4.00 |
| – | – | – | CC(=O)N1CCCc2cccnc21 [x1816-FU59] | pKd [5]: < 4.00 |
| – | – | – | CC(=O)N1CCCc2ncccc21 [x1816-FU60] | pKd [5]: < 4.00 |
| – | – | – | O=C(Nc1ccccc1)N1CCCCCC1 [x1944*] | pIC50 [1]: 4.36 |
| – | – | – | CNCC1COc2ccccc2O1 (stereo not shown) [x2004] | pIC50 [1]: 4.59 |
